Results as given in US20240199584A1, “KRAS INHIBITORS” (Bristol-Myers Squibb Company, priority 2022, published 2024).
Read-outs that look alike come from different tables or passages of the source.

How the values were obtained:
KRAS G12D [1] = target: T1, KRAS G12D (Homo sapiens, UniProt P01116, G12D); assay: biochemical
KRAS G12D [2] = target: T1, KRAS G12D; assay: biochemical; remark: listed apart in the source
KRAS G12A = target: T2, KRAS G12A (Homo sapiens, UniProt P01116, G12A); assay: Cellular KRAS:RAF Disruption Assay (NanoBRET), KRAS G12A; assay type: cell-based; conditions: HEK293 T cells co-expressing RAF1 and KRAS G12A, 24 hours; read-out: RAS::RAF binding via NanoBRET IC50, KRAS G12A
T2 construct: expressed in transfected cells
T2 sequence (P01116 1-188 isoform P01116-2 G12A): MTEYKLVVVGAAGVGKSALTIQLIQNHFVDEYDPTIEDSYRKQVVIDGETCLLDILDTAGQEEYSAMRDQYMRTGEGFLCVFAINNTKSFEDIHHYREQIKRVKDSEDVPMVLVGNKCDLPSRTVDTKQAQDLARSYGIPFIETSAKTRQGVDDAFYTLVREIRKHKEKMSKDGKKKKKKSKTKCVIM
Method: (§1) Cellular KRAS:RAF Disruption Assay
(§2) Stable cell lines (HEK293 T) were generated to co-express RAF1 and mutant or wild type KRAS, as indicated, using the BiBRET vector (Promega). Engineered cell lines were suspended in media (OptiMEM, […]), plated in 384-well plates (8000 cells/well), and allowed to rest for 1.5 hours. Cells were treated with compounds for 24 hours, and NanoBRET NanoGlo substrate (Promega) was added per the manufacturer's instructions.

KRAS G12V = target: T3, KRAS G12V (Homo sapiens, UniProt P01116, G12V); assay: Cellular KRAS:RAF Disruption Assay (NanoBRET), KRAS G12V; assay type: cell-based; conditions: HEK293 T cells co-expressing RAF1 and KRAS G12V, 24 hours; read-out: RAS::RAF binding via NanoBRET IC50, KRAS G12V
T3 construct: expressed in transfected cells
T3 sequence (P01116 1-188 isoform P01116-2 G12V): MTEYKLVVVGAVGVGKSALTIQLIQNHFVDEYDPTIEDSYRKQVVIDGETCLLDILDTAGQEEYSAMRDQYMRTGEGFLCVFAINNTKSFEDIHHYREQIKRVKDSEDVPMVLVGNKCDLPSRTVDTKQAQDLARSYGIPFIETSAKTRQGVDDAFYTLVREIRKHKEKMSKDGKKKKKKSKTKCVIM
Method: as §1, §2

KRAS G12C = target: T4, KRAS G12C (Homo sapiens, UniProt P01116, G12C); assay: Cellular KRAS:RAF Disruption Assay (NanoBRET), KRAS G12C; assay type: cell-based; conditions: HEK293 T cells co-expressing RAF1 and KRAS G12C, 24 hours; read-out: RAS::RAF binding via NanoBRET IC50, KRAS G12C
T4 construct: expressed in transfected cells
T4 sequence (P01116 1-188 isoform P01116-2 G12C): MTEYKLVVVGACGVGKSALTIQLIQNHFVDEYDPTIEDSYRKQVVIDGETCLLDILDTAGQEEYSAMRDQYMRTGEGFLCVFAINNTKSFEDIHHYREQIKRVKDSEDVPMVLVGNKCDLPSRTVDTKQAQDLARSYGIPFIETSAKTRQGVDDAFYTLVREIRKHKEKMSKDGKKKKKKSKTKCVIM
Method: as §1, §2

KRAS WT = target: T5, KRAS WT (Homo sapiens, UniProt P01116); assay: Cellular KRAS:RAF Disruption Assay (NanoBRET), KRAS WT; assay type: cell-based; conditions: HEK293 T cells co-expressing RAF1 and wild type KRAS, 24 hours; read-out: RAS::RAF binding via NanoBRET IC50, KRAS WT
T5 construct: expressed in transfected cells
T5 sequence (P01116 1-188 isoform P01116-2): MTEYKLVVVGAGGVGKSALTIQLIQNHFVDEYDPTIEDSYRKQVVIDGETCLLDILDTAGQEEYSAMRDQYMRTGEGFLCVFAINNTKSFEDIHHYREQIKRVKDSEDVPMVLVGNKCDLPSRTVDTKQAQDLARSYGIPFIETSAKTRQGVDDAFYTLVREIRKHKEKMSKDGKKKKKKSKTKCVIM
Method: as §1, §2

T1 sequence (P01116 1-188 isoform P01116-2 G12D): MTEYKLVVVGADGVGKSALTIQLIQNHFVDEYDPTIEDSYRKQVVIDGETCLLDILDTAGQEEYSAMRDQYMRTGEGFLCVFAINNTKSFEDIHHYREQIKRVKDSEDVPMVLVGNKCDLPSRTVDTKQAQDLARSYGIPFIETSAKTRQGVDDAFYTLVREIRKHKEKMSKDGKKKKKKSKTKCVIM

Row | Compound | IC50 (KRAS G12D [1]) [nM] | IC50 (KRAS G12D [2]) [nM] | also measured
1 | C#Cc1c(F)ccc2cc(O)cc(-c3ncc4c(N5CCOCCC5C)nc(OC[C@]56CCC[C@H]5N(C)CCC6)nc4c3F)c12 (single isomer, unassigned) [Example 1-142] | 560 | – | –
2 | C#Cc1c(F)ccc2cc(O)cc(-c3ncc4c(N5CCCC(C#N)C5)nc(OCC5(CN6CCC(F)CC6)CC5)nc4c3F)c12 (single isomer, unassigned) [Example 1-44, 1-[7-(8-ethynyl-7-fluoro-3-hydroxynaphthalen-1-yl)-8-fluoro-2-({1-[(4-fluoropiperidin-1-yl)methyl]cyclopropyl}methoxy)pyrido [4,3-d]pyrimidin-4-yl]piperidine-3-carbonitrile] | > 100000 | 19100 | –
3 | C#Cc1c(F)ccc2cc(O)cc(-c3ncc4c(N5CCOCC(F)(F)C5)nc(OC[C@]56CCC[C@H]5N(C)CCC6)nc4c3F)c12 [Example 1-107, 4-(2-{[(4aS,7aR)-1-methyl-octahydro-1H-cyclopenta[b]pyridin-4a-yl]methoxy}-4-(6,6-difluoro-1,4-oxazepan-4-yl)-8-fluoropyrido[4,3-d]pyrimidin-7-yl)-5-ethynyl-6-fluoronaphthalen-2-ol] | – | – | IC50 (KRAS G12A): 5.3 nM; IC50 (KRAS G12V): 133 nM; IC50 (KRAS G12C): 9.8 nM; IC50 (KRAS WT): 9.7 nM
4 | C#Cc1c(F)ccc2cc(O)cc(-c3ncc4c(N5CCOCCC5C)nc(OC[C@]56CCC[C@H]5N(C)CCC6)nc4c3F)c12 (stereo partly drawn) [Example 1-93, 4-(2-{[(4aS,7aR)-1-methyl-octahydro-1H-cyclopenta [b]pyridin-4a-yl]methoxy}-8-fluoro-4-(5-methyl-1,4-oxazepan-4-yl)pyrido[4,3-d]pyrimidin-7-yl)-5-ethynyl-6-fluoronaphthalen-2-ol] | 190 | – | –
5 | C#Cc1c(F)ccc2cc(O)cc(-c3ncc4c(N5CCOCC(CC#N)C5)nc(OC[C@]56CCC[C@H]5N(C)CCC6)nc4c3F)c12 (single isomer, unassigned) [Example 1-130] | 2 | 2 | –
6 | C#Cc1c(F)ccc2cc(O)cc(-c3ncc4c(N5C[C@@H](C)O[C@@H](C)C5)nc(OC[C@]56CCC[C@H]5N(C)CCC6)nc4c3F)c12 [Example 1-12, 4-(2-{[(4aS,7aR)-1-methyl-octahydro-1H-cyclopenta[b]pyridin-4a-yl]methoxy}-4-[(2R,6S)-2,6-dimethylmorpholin-4-yl]-8-fluoropyrido[4,3-d]pyrimidin-7-yl)-5-ethynyl-6-fluoronaphthalen-2-ol] | 1000 | < 2 | –
7 | C#Cc1c(F)ccc2cc(O)cc(-c3ncc4c(N5CCCOCC5)nc(OC[C@@]56C[C@@H](F)CN5CC5(CC5)C6)nc4c3F)c12 [Example 1-106, 4-(2-{[(6′R,7′aR)-6′-fluoro-hexahydrospiro [cyclopropane-1,2′-pyrrolizine]-7′a-yl]methoxy}-8-fluoro-4-(1,4-oxazepan-4-yl)pyrido[4,3-d]pyrimidin-7-yl)-5-ethynyl-6-fluoronaphthalen-2-ol] | 10 | 10 | –
8 | C#Cc1c(F)ccc2cc(O)cc(-c3ncc4c(N5C[C@H]6C[C@@H]5CO6)nc(OC[C@@]56CCCN5C[C@H](F)C6)nc4c3F)c12 [Example 1-37, 4-(2-{[(2R,7aS)-2-fluoro-hexahydro-1H-pyrrolizin-7a-yl]methoxy}-8-fluoro-4-[(1R,4R)-2-oxa-5-azabicyclo[2.2.1]heptan-5-yl]pyrido[4,3-d]pyrimidin-7-yl)-5-ethynyl-6-fluoronaphthalen-2-ol] | – | – | IC50 (KRAS G12A): 10.5 nM; IC50 (KRAS G12V): 54.5 nM; IC50 (KRAS G12C): 16.6 nM
9 | C#Cc1c(F)ccc2cc(O)cc(-c3ncc4c(N5CCCC(CO)C5)nc(OC[C@@]56CCCN5C[C@H](F)C6)nc4c3F)c12 (single isomer, unassigned) [Example 1-63] | ≥ 100000 | 12800 | –
10 | C#Cc1c(F)ccc2cc(O)cc(-c3ncc4c(N5CCCC(C#N)C5)nc(OC[C@@]56CCCN5C[C@H](F)C6)nc4c3F)c12 (single isomer, unassigned) [Example 1-23] | 2 | – | –

Further lines, with some results ahead:

Row | IC50 (KRAS G12D [1]) [nM] | IC50 (KRAS G12D [2]) [nM] | Compound | also measured
11 | > 100000 | > 100000 | CN1CCC[C@@]2(COc3nc(N4CCC[C@@](C)(O)C4)c4cnc(-c5cn(C(F)F)c(=O)c6ccc(C(F)(F)F)cc56)c(F)c4n3)CCC[C@@H]12 [Example 10-8, 4-(2-{[(4aS,7aR)-1-methyl-octahydro-1H-cyclopenta[b]pyridin-4a-yl]methoxy}-8-fluoro-4-[(3R)-3-hydroxy-3-methylpiperidin-1-yl]pyrido[4,3-d]pyrimidin-7-yl)-2-(difluoromethyl)-6-(trifluoromethyl)-1,2-dihydroisoquinolin-1-one] | –
12 | 680 | – | C#Cc1c(F)ccc2cc(O)cc(-c3ccc4c(N5CCCC(C#N)C5)nc(OC[C@@]56CCCN5C[C@H](F)C6)nc4c3F)c12 (single isomer, unassigned) [Example 2-41] | –
13 | > 100000 | > 100000 | CN1CCC[C@@]2(COc3nc(N4CCC[C@@](C)(O)C4)c4cnc(-c5cn(C(F)F)c(=O)c6ccccc56)c(F)c4n3)CCC[C@@H]12 [Example 10-6, 4-(2-{[(4aS,7aR)-1-methyl-octahydro-1H-cyclopenta[b]pyridin-4a-yl]methoxy}-8-fluro-4-[(3R)-3-hydroxy-3-methylpiperidin-1-yl]pyrido[4,3-d]pyrimidin-7-yl)-2-(difluoromethyl)-1,2-dihydroisoquinolin-1-one] | –
14 | – | 6 | C#Cc1c(F)ccc2cc(O)cc(-c3nc(OC)c4c(N5CCOC6CC65)nc(OC[C@@]56CCCN5C[C@H](F)C6)nc4c3F)c12 (stereo partly drawn) [Example 9-40, 4-(4-(2-oxa-5-azabicyclo[4.1.0]heptan-5-yl)-8-fluoro-2-(((2R,7aS)-2-fluorotetrahydro-1H-pyrrolizin-7a(5H)-yl)methoxy)-5-methoxypyrido[4,3-d]pyrimidin-7-yl)-5-ethynyl-6-fluoronaphthalen-2-ol] | –
15 | > 100000 | > 100000 | CN1CCC[C@@]2(COc3nc(N4CCC[C@@](C)(O)C4)c4cnc(-c5cnc(OC(F)F)c6ccccc56)c(F)c4n3)CCC[C@@H]12 [Example 10-7, (3R)-1-(2-{[(4aS,7aR)-1-methyl-octahydro-1H-cyclopenta[b]pyridin-4a-yl]methoxy}-7-[1-(difluoromethoxy)isoquinolin-4-yl]-8-fluoropyrido[4,3-d]pyrimidin-4-yl)-3-methylpiperidin-3-ol] | –
16 | > 100000 | 2390 | C#Cc1c(F)ccc2cc(O)cc(-c3ccc4c(N5CCC(S(=O)(=O)N(C)C)CC5)nc(OC[C@@]56CCCN5C[C@H](F)C6)nc4c3F)c12 [Example 2-19, 1-(2-{[(2R,7aS)-2-fluoro-hexahydro-1H-pyrrolizin-7a-yl]methoxy}-7-(8-ethynyl-7-fluoro-3-hydroxynaphthalen-1-yl)-8-fluoroquinazolin-4-yl)-N,N-dimethylpiperidine-4-sulfonamide] | –
17 | 6600 | < 2 | C#Cc1c(F)ccc2cc(O)cc(-c3ccc4c(N5CC6CCC(C5)N6C(=O)C5CC(F)(F)C5)nc(OC[C@@]56CCCN5C[C@H](F)C6)nc4c3F)c12 [Example 7-4, 4-(2-{[(2R,7aS)-2-fluoro-hexahydro-1H-pyrrolizin-7a-yl]methoxy}-4-[8-(3,3-difluorocyclobutanecarbonyl)-3,8-diazabicyclo[3.2.1]octan-3-yl]-8-fluoroquinazolin-7-yl)-5-ethynyl-6-fluoronaphthalen-2-ol] | –
18 | 1060 | < 2 | CN1CCC[C@@]2(COc3nc(N4CCC[C@@](C)(O)C4)c4cnc(-c5cc(O)ccc5C5CCC5)c(F)c4n3)CCC[C@@H]12 [Example 10-3, (3R)-1-(2-{[(4aS,7aR)-1-methyl-octahydro-1H-cyclopenta[b]pyridin-4a-yl]methoxy}-7-(2-cyclobutyl-5-hydroxyphenyl)-8-fluoropyrido[4,3-d]pyrimidin-4-yl)-3-methylpiperidin-3-ol] | –
19 | 2620 | 2610 | C#Cc1c(F)ccc2cc(O)cc(-c3ccc4c(N5CC6C(C5)C6(C)C)nc(OC[C@@]56CCCN5C[C@H](F)C6)nc4c3F)c12 (stereo partly drawn) [Example 2-11, 4-(2-{[(2R,7aS)-2-fluoro-hexahydro-1H-pyrrolizin-7a-yl]methoxy}-4-{6,6-dimethyl-3-azabicyclo[3.1.0]hexan-3-yl}-8-fluoroquinazolin-7-yl)-5-ethynyl-6-fluoronaphthalen-2-ol] | –
20 | – | 6 | C#Cc1c(F)ccc2cc(O)cc(-c3nc(OC)c4c(N5CCC[C@](O)(CF)C5)nc(OC[C@]56CCC[C@H]5N(C)CCC6)nc4c3F)c12 [Example 9-26, (R)-1-(7-(8-ethynyl-7-fluoro-3-hydroxynaphthalen-1-yl)-8-fluoro-5-methoxy-2-(((4aS,7aR)-1-methyloctahydro-4aH-cyclopenta[b]pyridin-4a-yl)methoxy)pyrido[4,3-d]pyrimidin-4-yl)-3-(fluoromethyl)piperidin-3-ol] | –
